Paper PMC6254361, “The properties of Msh2–Msh6 ATP binding mutants suggest a signal amplification mechanism in DNA mismatch repair” (The Journal of Biological Chemistry, 2018)

Biological target: T1, Msh2–Msh6 (Saccharomyces cerevisiae, UniProt P25847+Q03834, P25847:K694R)
T1 sequence (P25847 1-964 K694R): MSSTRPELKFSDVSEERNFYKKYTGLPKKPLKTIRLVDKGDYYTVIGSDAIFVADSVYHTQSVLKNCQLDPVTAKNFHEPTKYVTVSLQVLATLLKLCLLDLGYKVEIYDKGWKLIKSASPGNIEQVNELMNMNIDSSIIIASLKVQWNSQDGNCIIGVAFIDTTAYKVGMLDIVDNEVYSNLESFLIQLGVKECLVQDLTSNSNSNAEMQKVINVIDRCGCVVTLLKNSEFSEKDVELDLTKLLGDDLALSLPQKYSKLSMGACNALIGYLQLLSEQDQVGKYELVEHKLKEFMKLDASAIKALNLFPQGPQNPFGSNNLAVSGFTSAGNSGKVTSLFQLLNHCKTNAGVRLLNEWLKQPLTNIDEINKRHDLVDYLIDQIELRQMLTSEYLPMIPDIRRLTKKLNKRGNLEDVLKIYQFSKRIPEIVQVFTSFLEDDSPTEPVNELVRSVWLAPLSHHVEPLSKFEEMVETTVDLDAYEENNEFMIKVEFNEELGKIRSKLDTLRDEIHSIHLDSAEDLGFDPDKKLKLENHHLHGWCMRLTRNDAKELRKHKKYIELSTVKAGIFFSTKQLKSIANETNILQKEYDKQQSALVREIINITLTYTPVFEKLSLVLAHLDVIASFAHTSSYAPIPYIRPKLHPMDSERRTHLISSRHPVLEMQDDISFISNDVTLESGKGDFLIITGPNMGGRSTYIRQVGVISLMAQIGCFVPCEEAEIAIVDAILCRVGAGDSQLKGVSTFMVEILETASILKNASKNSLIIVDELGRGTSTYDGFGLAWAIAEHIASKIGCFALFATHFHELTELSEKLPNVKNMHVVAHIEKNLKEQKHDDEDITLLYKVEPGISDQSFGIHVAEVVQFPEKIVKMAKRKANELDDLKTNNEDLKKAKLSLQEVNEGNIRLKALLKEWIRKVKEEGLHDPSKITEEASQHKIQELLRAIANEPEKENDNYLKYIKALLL
T1 sequence (Q03834 1-1242): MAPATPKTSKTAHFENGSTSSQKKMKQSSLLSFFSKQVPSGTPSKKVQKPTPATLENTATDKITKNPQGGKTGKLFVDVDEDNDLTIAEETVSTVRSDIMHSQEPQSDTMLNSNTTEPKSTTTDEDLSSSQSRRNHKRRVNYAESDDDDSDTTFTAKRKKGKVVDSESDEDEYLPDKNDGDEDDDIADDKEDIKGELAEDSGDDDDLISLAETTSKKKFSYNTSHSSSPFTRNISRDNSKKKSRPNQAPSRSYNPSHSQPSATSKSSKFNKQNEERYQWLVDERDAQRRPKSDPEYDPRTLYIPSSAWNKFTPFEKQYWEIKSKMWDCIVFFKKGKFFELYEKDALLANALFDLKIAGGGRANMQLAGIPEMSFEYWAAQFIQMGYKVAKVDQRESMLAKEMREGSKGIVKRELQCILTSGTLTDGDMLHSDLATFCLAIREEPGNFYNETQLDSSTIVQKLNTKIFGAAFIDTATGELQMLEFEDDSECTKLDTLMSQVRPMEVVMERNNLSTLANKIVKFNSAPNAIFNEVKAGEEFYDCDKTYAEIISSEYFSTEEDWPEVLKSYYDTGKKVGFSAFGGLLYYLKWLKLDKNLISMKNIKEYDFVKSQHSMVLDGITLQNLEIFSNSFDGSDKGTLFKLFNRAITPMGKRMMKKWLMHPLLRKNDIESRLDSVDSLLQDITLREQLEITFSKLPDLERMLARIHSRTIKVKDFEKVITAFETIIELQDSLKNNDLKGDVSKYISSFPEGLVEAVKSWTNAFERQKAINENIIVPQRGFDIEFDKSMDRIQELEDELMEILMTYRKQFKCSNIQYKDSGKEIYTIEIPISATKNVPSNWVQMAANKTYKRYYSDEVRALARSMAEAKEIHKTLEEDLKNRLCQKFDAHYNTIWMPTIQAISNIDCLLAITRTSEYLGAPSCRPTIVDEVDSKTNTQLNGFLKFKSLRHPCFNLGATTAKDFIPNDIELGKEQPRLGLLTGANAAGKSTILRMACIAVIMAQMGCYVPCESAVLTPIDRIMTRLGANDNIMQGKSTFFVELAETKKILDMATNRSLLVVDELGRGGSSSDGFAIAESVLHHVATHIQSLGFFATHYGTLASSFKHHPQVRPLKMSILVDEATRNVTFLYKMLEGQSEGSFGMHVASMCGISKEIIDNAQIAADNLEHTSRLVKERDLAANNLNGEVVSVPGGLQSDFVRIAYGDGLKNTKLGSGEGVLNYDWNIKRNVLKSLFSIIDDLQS
Test: UV cross-linking of [γ-32P]ATP, SDS-PAGE, phosphorimaging
Format: binding
Conditions: labelled compound; no Mg2+, EDTA, pH 8, on ice; Msh2 site at 60 μM ATP, Msh6 site at 1 μM ATP

## Nc1ncnc2c1ncn2[C@@H]1O[C@H](COP(=O)(O)OP(=O)(O)OP(=O)(O)O)[C@@H](O)[C@H]1O [ATP]
  relative ATP binding: Msh2(K694A)–Msh6 and Msh2(K694R)–Msh6 mutant complexes were defective for ATP binding to both
